From patent publication US11172676B2, “Antibacterial resin composition” (TOYO SEIKAN GROUP HOLDINGS, LTD., priority 2011, dated 2021)

Details: JIS Z 7260-107

Q: Which “silver concentrations eluted out in 1-octanol or in water (hydrophilic and oleophilic property)” value does the source give for O=C1NS(=O)(=O)c2ccccc21.[Ag] [saccharin silver] here?
A: hydrophilic property and oleophilic property which are both superior to those of silver stearate, phthalazone silver or benzotriazole silver
